According to article PMC10441804, “Insect fungal pathogens secrete a cell wall-associated glucanase that acts to help avoid recognition by the host immune system” (PLOS Pathogens, 2023):

Target: T1, BbEng1 (Beauveria bassiana, UniProt J4W7P1)
T1 construct: gene BBA_04753; full precursor 588 aa, 21-residue signal peptide removed; GH16 domain 22-343; expressed in Pichia pastoris GS115 (pPIC9K), purified, detected by anti-His tag
Test: glucose release, glucose oxidase method
Format: biochemical
Settings: pH 6.0 (50 mM sodium acetate buffer), 37 °C, 1 h

T1 sequence (J4W7P1 entry or part of it): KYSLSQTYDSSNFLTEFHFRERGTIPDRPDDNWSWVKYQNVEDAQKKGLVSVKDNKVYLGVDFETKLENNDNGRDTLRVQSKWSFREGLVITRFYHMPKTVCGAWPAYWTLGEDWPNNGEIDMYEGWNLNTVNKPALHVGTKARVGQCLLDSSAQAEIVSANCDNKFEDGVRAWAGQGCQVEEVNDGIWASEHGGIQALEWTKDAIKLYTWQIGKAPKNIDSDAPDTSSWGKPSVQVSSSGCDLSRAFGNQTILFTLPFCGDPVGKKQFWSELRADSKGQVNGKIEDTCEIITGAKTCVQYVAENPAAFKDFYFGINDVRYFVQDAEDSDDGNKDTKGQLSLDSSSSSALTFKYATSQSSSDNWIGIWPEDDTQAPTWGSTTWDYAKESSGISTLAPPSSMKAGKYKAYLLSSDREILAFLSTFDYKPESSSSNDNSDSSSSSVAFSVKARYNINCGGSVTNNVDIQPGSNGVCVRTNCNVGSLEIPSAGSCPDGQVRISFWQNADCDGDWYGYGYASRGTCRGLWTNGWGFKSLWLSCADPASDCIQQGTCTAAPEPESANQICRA

OC[C@H]1O[C@@H](O[C@@H]2[C@@H](O)[C@H](O[C@@H]3[C@@H](O)[C@H](O[C@H]4[C@H](O)[C@@H](CO)OC(O)[C@@H]4O)O[C@H](CO)[C@H]3O)O[C@H](CO)[C@H]2O)[C@H](O)[C@@H](O)[C@@H]1O (stereo partly shown) [laminaritetraose]
glucose release, glucose oxidase method: Measurement of glucanase activity indicated release of reducing sugar from laminaritetraose (β-1,3-glucose)
